Results as given in patent publication US20060166996A1, “Phthalazine derivatives as phosphodiesterase 4 inhibitors” (Zambon Group S.P.A., priority 2002, published 2006).
Like-named read-outs stand apart in the source and are kept apart here.

Legend:
TNFα release = TNFα release in whole human blood (LPS, ELISA); type: cell-based
Experimental: The blood samples obtained from healthy volunteers were collected in heparinised tubes and diluted 1:5 with RPMI 1640 without serum addition.
The test was carried out in 96-well plates and samples containing 150 μl of diluted blood and 150 μl of RPMI 1640 with control vehicle or with different concentration of the compounds of the present invention were incubated at 37° C. in a 5% CO2 humidified atmosphere for 30 minutes.
The whole blood in the assay samples was diluted 1:10 (v/v).
The samples were stimulated with LPS (lipopolysaccharide from E. Coli: serotype B 0:55, Sigma) 0.25 μg/ml and incubated for 24 hours.
After centrifugation, the supernatants were collected for TNFα levels determination by a commercially available ELISA kit (Biosource).
The test objects were dissolved in DMSO at 10^−2 M and further diluted in RPMI 1640. […] Each compound was tested in duplicate at nine concentrations and the data obtained were further confirmed using blood samples from different donors.
The percent inhibition of TNFα production at each concentration was calculated and IC50 was determined using a 4-parameters logistic equation (Origin calculation program, Microcal Software Inc.)

PDE 1 = target: T1, PDE 1 (Bos taurus, UniProt P14100); assay: PDE 1 enzyme inhibition (SPA); type: biochemical; conditions: PDE 1 from bovine heart (Sigma P0520); read-out: PDE 1 IC 50
T1 construct: partially purified from bovine heart; purchased Sigma P0520; host or cells: bovine heart
Experimental: Lyophilised PDE 1 enzyme, partially purified from bovine heart, was purchased from Sigma (P0520).
The enzyme consists of the PI fraction reported by Ho et al. (Biochim Biophys Acta, 1976, vol. 429(2), 461-473).
The lyophilised enzyme was reconstituted with 30% v/v ethylene glycol at a concentration of 500 µg/ml and stored at −20° C.
PDE 1 activity was determined using the Scintillation Proximity Assay (SPA) Amersham kit consisting of tracer ^3H-cAMP, PDE assay buffer (10×solution: 500 mM TRIS/HCl pH 7.5, 83 mM MgCl2 and 17 mM EGTA) and Yttrium SPA PDE beads (containing 18 mM zinc sulphate).
(§1) The radioactivity of the beads was measured using a scintillation counter (Packard model MINAXI β TRI-CARB 4000 SERIES).

PDE 2 = target: T2, PDE 2 (Rattus norvegicus, UniProt Q01062); assay: PDE 2 enzyme inhibition (SPA); type: biochemical; conditions: PDE 2 from murine PC12 cells; read-out: PDE 2 IC 50
T2 construct: Fractions containing PDE 2 enzyme activity were pooled; endogenous in cells; host or cells: PC12 cells (Istituto Zooprofilattico Brescia)
T2 sequence (Q01062 1-928): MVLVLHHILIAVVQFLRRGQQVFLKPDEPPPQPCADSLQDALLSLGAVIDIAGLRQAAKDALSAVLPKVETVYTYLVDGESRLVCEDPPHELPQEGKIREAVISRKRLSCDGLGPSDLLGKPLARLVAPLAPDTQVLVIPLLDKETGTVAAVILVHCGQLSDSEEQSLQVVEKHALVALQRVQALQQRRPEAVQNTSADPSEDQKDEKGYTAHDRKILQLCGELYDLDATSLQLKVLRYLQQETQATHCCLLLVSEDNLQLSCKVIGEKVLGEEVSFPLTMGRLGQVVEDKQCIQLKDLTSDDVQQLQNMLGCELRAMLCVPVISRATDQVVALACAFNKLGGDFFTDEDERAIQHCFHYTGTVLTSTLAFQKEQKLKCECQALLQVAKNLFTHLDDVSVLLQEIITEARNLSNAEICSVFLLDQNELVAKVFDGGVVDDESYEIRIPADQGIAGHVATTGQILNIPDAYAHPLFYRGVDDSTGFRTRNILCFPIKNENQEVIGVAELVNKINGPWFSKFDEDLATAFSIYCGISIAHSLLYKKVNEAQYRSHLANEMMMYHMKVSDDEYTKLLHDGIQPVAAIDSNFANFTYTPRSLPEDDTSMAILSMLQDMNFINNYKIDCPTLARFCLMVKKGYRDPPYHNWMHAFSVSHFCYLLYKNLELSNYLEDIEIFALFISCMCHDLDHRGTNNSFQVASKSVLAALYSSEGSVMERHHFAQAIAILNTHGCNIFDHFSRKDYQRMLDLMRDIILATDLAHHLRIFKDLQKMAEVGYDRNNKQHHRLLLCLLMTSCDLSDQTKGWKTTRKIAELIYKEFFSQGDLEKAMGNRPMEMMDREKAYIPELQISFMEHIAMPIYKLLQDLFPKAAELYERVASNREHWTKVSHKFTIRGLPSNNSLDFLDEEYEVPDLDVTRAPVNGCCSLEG
Experimental: PDE 2 was purified from murine PC12 cells according to Whalin et al. (Molecular Pharmacol. 1991, 39, 711-717).
PC12 cells from Istituto Zooprofilattico Brescia (Italy) were maintained in […] flasks at 37° C. and 5% CO2 in DMEM containing 5% FCS, 15% horse serum, 1% penicillin, 1% streptomycin and 1% glutamine.
The cells were expanded paying attention to split them only at reached confluency.
After washing the cells were detached with 0.05% trypsin/0.02%EDTA and collected in a clean test tube.
After centrifugation, the cells were suspended in buffer containing Bis-Tris 20 mM, EDTA 2 mM, 2-mercaptoethanol 5 mM, leupeptin 1 μM, pepstatin A 1 μM, PMSF 100 μM, pH 6.5, and homogenised using a Polytron homogeniser.
After centrifugation, the supernatant fraction was applied to a UNO Q-12 column connected to a Biologic Chromatography system (FPLC, BIO RAD).
PDE 2 enzyme was eluted with a linear 0.05-1M sodium acetate gradient and elution fractions were collected for PDE 2 enzyme activity assay.
Fractions containing PDE 2 enzyme activity were pooled, dialysed overnight against distilled water and concentrated 10 times by an Amicon filtration system (using YM10 membrane filter).
Ethylene glycol was added to a final concentration of 30% v/v and the solution stored at −20° C.
Enzymatic activity was stable for several weeks under these conditions.
PDE 2 activity assay was performed using Scintillation Proximity Assay (SPA) Amersham kit consisting of tracer ^3H-cAMP, PDE assay buffer (10×solution: 500 mM TRIS/HCl pH 7.5, 83 mM MgCl2 and 17 mM EGTA) and Yttrium SPA PDE beads (containing 18 mM zinc sulphate).
as §1

[1] = h-WB (whole human blood), LPS stimulated, read-out: IC 50 (nM) h-WB
[2] = whole human blood diluted 1:10, LPS 0.25 μg/ml, 24 hours, read-out: IC 50 (nM) h-WB 1:10

T1 sequence (P14100 1-514 isoform P14100-2): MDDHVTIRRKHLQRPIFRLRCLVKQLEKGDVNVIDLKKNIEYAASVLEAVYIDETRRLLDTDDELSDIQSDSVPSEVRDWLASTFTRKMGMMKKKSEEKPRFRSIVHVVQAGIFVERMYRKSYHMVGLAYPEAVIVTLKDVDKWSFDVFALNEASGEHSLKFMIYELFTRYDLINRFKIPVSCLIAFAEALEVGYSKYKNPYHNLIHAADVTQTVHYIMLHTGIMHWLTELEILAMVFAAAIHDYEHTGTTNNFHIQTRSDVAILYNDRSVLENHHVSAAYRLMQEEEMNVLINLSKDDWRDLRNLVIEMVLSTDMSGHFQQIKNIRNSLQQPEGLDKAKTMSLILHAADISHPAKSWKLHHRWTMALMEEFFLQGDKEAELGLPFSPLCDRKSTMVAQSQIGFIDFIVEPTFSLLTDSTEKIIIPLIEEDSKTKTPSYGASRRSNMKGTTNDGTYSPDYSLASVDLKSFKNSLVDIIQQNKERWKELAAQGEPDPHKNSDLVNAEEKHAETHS

IC50 (TNFα release; [1]) [nM] | IC50 (TNFα release; [2]) [nM] | IC50 (PDE 1) [µM] | IC50 (PDE 2) [µM] | SMILES
33000 | 2470 | > 10 | > 10 | COc1ccc2c(Cc3c(Cl)cncc3Cl)nnc(-c3cccc(C(=O)O)c3)c2c1 [Compound 2, 3-[4-(3,5-dichloro-pyridin-4-ylmethyl)-7-methoxy-phthalazin-1-yl]-benzoic Acid]
14300 | 1230 | > 10 | > 10 | O=C(O)c1cccc(-c2nnc(Cc3c(Cl)cncc3Cl)c3ccc(OC(F)F)cc23)c1 [Compound 8, 3-[4-(3,5-dichloro-pyridin-4-ylmethyl)-7-difluoromethoxy-phthalazin-1-yl]-benzoic Acid]
 | 18000 | > 10 | > 10 | COc1ccc2c(Cc3c(Cl)cncc3Cl)nnc(-c3sccc3C(=O)O)c2c1 [Compound 10, 2-[4-(3,5-dichloro-pyridin-4-ylmethyl)-7-methoxy-phthalazin-1-yl]-thiophene-3-carboxylic Acid]
